Measured values taken from patent publication US20190254285A1, “SODIUM PHOSPHITE COMBINATIONS” (priority 2016, published 2019).

How the values were obtained:
Botrytis cinerea = Botrytis cinerea rot on wounded apple and banana fruit; type: in vivo; design: key: Different results are indicated by different letters; Different results are indicated by different letters; Different results are indicated by different letters; Different results are indicated by different letters; Different results are indicated by different letters
Description: Tested fruit: apple (cv Elstar) and a banana (cv Cavendish) from organic origin/SKAL certified. SKAL is a semi-governmental Dutch organization that controls organic production in the Netherlands.
Used pathogen: Botrytis cinerea spore-suspension containing ˜3×10^5 propagules (spores)/ml.
Application: Fruit peel was damaged with a cork borer, depth ˜0.5 cm into the fruit, 2 wounds per apple fruit; 2 wounds per banana fruit. 30 microliters of a freshly prepared spore suspension of B. cinerea (estimated 3×10^5 spores/ml) were applied by pipette onto each wound. Subsequently, the spore-suspension was allowed to air-dry for 3 hours. 50 microliters of fungicide suspensions 1-6 were applied by pipette to each wound.
All fruits were kept at room temperature (20° C.).
Replicates: All treatments (1-6) were performed on 6 individual apples and 6 individual bananas with 2 wounds each resulting in 12 wounds per fruit per treatment. The recorded observed antifungal activity is the reduction (in percentages) of the average surface of the rot as observed in the 12 wounds compared to the rot surface of the untreated control.
Observation: All wounds were inspected daily for visual symptoms of fruit rot and/or fungus growth. Rot surface was determined after 5 and 7 days (see Tables 1, 2 and 3). The recorded observed antifungal activity is the surface of the rot.

Penicillium discolor = Penicillium discolor rot on wounded apples cv Gala; type: in vivo; details: rot surface area vs untreated control, phosphite 16 mM, natamycin 100 ppm
Procedure: Tested fruit: apples cv Gala from organic origin/SKAL certified. SKAL is a semi-governmental Dutch organization that controls organic production in the Netherlands. Wounds of the apples were checked at day 3. All phosphite concentrations were tested at a concentration of 16 mM of phosphonate. Natamycin (95%, Freda) solo and in combination was tested at a concentration of 100 ppm. […] Used pathogen: Penicillium discolor spore-suspension containing 4*10E6 spores/ml. Application: The fruit peel of the apple was damaged with a cork borer, ø4 mm and depth ˜0.5 cm into the fruit, with 2 wounds per apple. 40 microliter of a freshly prepared spore suspension of P. discolor was applied by pipette onto each wound. Subsequently, the spore-suspension was allowed to air-dry for 4 hours. Then, 50 microliter of a treatment as presented in the list above was applied by pipette to each wound. All fruits were kept at room temperature (20° C.). Wounds of the apples were checked after 4, 7 and 9 days of incubation. The efficacy is calculated by measuring the surface area (square mm) of the rot on the apples, and compared to the untreated control (see Table 4). Replicates: All treatments for the apple experiment were performed on six individual apples with two wounds each resulting in 12 wounds per treatment.

O=[PH]([O-])O.[Na+] [NaH2PO3, monosodium dihydrogen phosphite]
Effect on fungicidal attack of Botrytis on apple and banana (Botrytis cinerea; Table 3, NaH2PO3 part, Concentration 1, mandipropamid control): d | Effect on fungicidal attack of Botrytis on apple and banana (Botrytis cinerea; Table 3, NaH2PO3 part, Concentration 2, mandipropamid control): c | Effect on fungicidal attack of Botrytis on apple and banana (Botrytis cinerea; Table 3, NaH2PO3 part, Concentration 3, mandipropamid control): b

C[C@@H]1C/C=C/C=C/C=C/C=C/[C@H](OC2O[C@H](C)[C@@H](O)[C@H](N)[C@@H]2O)C[C@@H]2O[C@](O)(C[C@@H](O)C[C@H]3O[C@@H]3/C=C/C(=O)O1)C[C@H](O)[C@H]2C(=O)O (stereo partly drawn) [Natamycin, (1R,3S,5R,7R, 8E,12R,14E,16E,18E,20E,22R,24S,25R,26S)-22-[(3-amino-3,6-dideoxy-D-mannopyranosyl)oxy]-1,3,26-trihydroxy-12-methyl-10-oxo-6,11,28-trioxatricyclo[22.3.1.05,7]octacosa-8,14,16,18,20-pentaene-25-carboxylic acid]
Efficacy (%) (Penicillium discolor; Day 4): 23% | Efficacy (%) (Penicillium discolor; Day 7): 10% | Efficacy (%) (Penicillium discolor; Day 9): 9%

C#CCOc1ccc(CCNC(=O)C(OCC#C)c2ccc(Cl)cc2)cc1OC (racemic) [mandipropamid, (RS)-2-(4-chloorfenyl)-N-[3-methoxy-4-(prop-2-ynyloxy)fenethyl]-2-(prop-2-ynyloxy)acetamide]
Effect on fungicidal attack of Botrytis on apple and banana (Botrytis cinerea; Table 1, phosphonate Control, mandipropamid 1/16 label): e | Effect on fungicidal attack of Botrytis on apple and banana (Botrytis cinerea; Table 1, phosphonate Control, mandipropamid ¼ label): e | Effect on fungicidal attack of Botrytis on apple and banana (Botrytis cinerea; Table 1, phosphonate Control, mandipropamid ½ label): d | Effect on fungicidal attack of Botrytis on apple and banana (Botrytis cinerea; Table 1, phosphonate Control, mandipropamid ⅛ label): e | Effect on fungicidal attack of Botrytis on apple and banana (Botrytis cinerea; Table 3, Na2HPO3 part, phosphonate Control, mandipropamid ¼ label): d | Effect on fungicidal attack of Botrytis on apple and banana (Botrytis cinerea; Table 3, Na2HPO3 part, phosphonate Control, mandipropamid ⅛ label): e | Effect on fungicidal attack of Botrytis on apple and banana (Botrytis cinerea; Table 3, NaH2PO3 part, phosphonate Control, mandipropamid ¼ label): e | Effect on fungicidal attack of Botrytis on apple and banana (Botrytis cinerea; Table 3, NaH2PO3 part, phosphonate Control, mandipropamid ½ label): d

COCC(=O)N(c1c(C)cccc1C)C(C)C(=O)OC (racemic) [mefenoxam, methyl N-(methoxyacetyl)-N-(2,6-xylyl)-DL-alaninate]
Effect on fungicidal attack of Botrytis on apple and banana (Botrytis cinerea; Table 2, phosphonate Control, mefenoxam ¼ label): e
